Test results from patent US7772241B2, “Variolin derivatives and their use as antitumor agents” (Pharma Mar S.A., priority 2001, dated 2010).
Like-named read-outs stand apart in the source and are kept apart here.

Legend:
[1] = test system: K-562; assay: Inhibition of cells growth by colorimetric (SRB) assay, K-562; details: for GI50 / CC50: Homo sapiens, K562, 48 h; for GI50: read-out: GI50 K-562, SRB assay, 48 hours exposure; for CC50: read-out: LC50 K-562, SRB assay, 48 hours exposure; for TGI K-562: SRB assay, 48 hours exposure
Method in brief: (§1)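 Read-out is sulforhodamine B protein stain (OD 490 nm) after cold TCA fixation, following 48 h continuous exposure to samples spanning 10 to 10^−8 μg/ml.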

[2] = test system: A-549; assay: Inhibition of cells growth by colorimetric (SRB) assay, A-549
Method in brief: as §1

[3] = test system: SK-MEL-28; assay: Inhibition of cells growth by colorimetric (SRB) assay, SK-MEL-28; details: for CC50: read-out: LC50 MEL-28, SRB assay, 48 hours exposure
Method in brief: as §1

[4] = test system: HT-29; assay: Inhibition of cells growth by colorimetric (SRB) assay, HT-29
Method in brief: as §1

[5] = test system: LoVo; assay: Inhibition of cells growth by colorimetric (SRB) assay, LoVo; details: for CC50: read-out: LC50 LOVO, SRB assay, 48 hours exposure
Method in brief: as §1

[6] = test system: LoVo-Dox; assay: Inhibition of cells growth by colorimetric (SRB) assay, LoVo-Dox; details: for GI50 / CC50: Homo sapiens, 48 h; for GI50: read-out: GI50 LOVO-DOX, SRB assay, 48 hours exposure; for CC50: read-out: LC50 LOVO-DOX, SRB assay, 48 hours exposure; for TGI LOVO-DOX: SRB assay, 48 hours exposure
Method in brief: as §1

[7] = test system: DU-145; assay: Inhibition of cells growth by colorimetric (SRB) assay, DU-145; details: for CC50: read-out: LC50 DU-145, SRB assay, 48 hours exposure
Method in brief: as §1

[8] = test system: LNCaP; assay: Inhibition of cells growth by colorimetric (SRB) assay, LNCaP
Method in brief: as §1

[9] = test system: SK-BR-3; assay: Inhibition of cells growth by colorimetric (SRB) assay, SK-BR-3; details: for CC50: read-out: LC50 SK-BR-3, SRB assay, 48 hours exposure
Text: (§2) The finality of these assays is to interrupt the growth of a “in vitro” tumor cell culture by means a continued exhibition of the cells to the sample to be testing.
(§3) This form of the assay employs 96 well cell culture microplates of 9 mm diameter (Faircloth, 1988; Mosmann, 1983). Most of the cell lines are obtained from American Type Culture Collection (ATCC) derived from different human cancer types.
(§4) Cells are maintained in RPMI 1640 10% FBS, supplemented with 0.1 g/l penicillin and 0.1 g/l streptomycin sulphate and then incubated at 37° C., 5% CO2 and 98% humidity. For the experiments, cells were harvested from subconfluent cultures using trypsin and resuspended in fresh medium before plating.
(§5) Cells are seeded in 96 well microtiter plates, at 5×10^3 cells per well in aliquots of 195 μl medium, and they are allowed to attach to the plate surface by growing in drug free medium for 18 hours. Afterward, samples are added in aliquots of 5 μl in a ranging from 10 to 10^−8 μg/ml, dissolved in DMSO/EtOH/PBS (0.5:0.5:99). After 48 hours exposure, the antitumor effect are measured by the SRB methodology: cells are fixed by adding 50 μl of cold 50% (wt/vol) trichloroacetic acid (TCA) and incubating for 60 minutes at 4° C. Plates are washed with deionized water and dried. One hundred μl of SRB solution (0.4% wt/vol in 1% acetic acid) is added to each microtiter well and incubated for 10 minutes at room temperature. Unbound SRB is removed by washing with 1% acetic acid. Plates are air dried and bound stain is solubilized with Tris buffer. Optical densities are read on a automated spectrophotometric plate reader at a single wavelength of 490 nm.
(§6) The values for mean +/−SD of data from triplicate wells are calculated. Some parameters for cellular responses can be calculated: GI=growth inhibition, TGI=total growth inhibition (cytostatic effect) and LC=cell killing (cytotoxic effect).

[10] = test system: IGROV-1; assay: Inhibition of cells growth by colorimetric (SRB) assay, IGROV-1
Method in brief: as §1

[11] = test system: IGROV-ET; assay: Inhibition of cells growth by colorimetric (SRB) assay, IGROV-ET; details: for CC50: read-out: LC50 IGROV-ET, SRB assay, 48 hours exposure
Method in brief: as §1

[12] = test system: SK-OV-3; assay: Inhibition of cells growth by colorimetric (SRB) assay, SK-OV-3; details: for CC50: read-out: LC50 SKOV-3, SRB assay, 48 hours exposure
Method in brief: as §1

[13] = test system: PANC-1; assay: Inhibition of cells growth by colorimetric (SRB) assay, PANC-1; details: for CC50: read-out: LC50 PANC-1, SRB assay, 48 hours exposure
Method in brief: as §1

[14] = test system: HMEC1; assay: Inhibition of cells growth by colorimetric (SRB) assay, HMEC1; details: SRB assay, 48 hours exposure
Text: as §2, §3, §4, §5, §6

[15] = Homo sapiens, A549, 48 h, read-out: LC50 A-549, SRB assay, 48 hours exposure
[16] = Homo sapiens, HT-29, 48 h, read-out: GI50 HT-29, SRB assay, 48 hours exposure
[17] = Homo sapiens, HT-29, 48 h, read-out: LC50 HT-29, SRB assay, 48 hours exposure
[18] = read-out: GI50 A-549, SRB assay, 48 hours exposure

Structure (SMILES): CSc1nccc(-c2c3cccnc3n3ccccc23)n1 [Compound 55]
- GI50 [1]: 9.71 µM
- CC50 [1]: ≥ 34.2 µM
- TGI K-562 [1]: 1.83E−05
- GI50 ([2]; Homo sapiens, A549, 48 h, read-out: GI50 A-549, SRB assay, 48 hours exposure): 7.29 µM
- CC50 [2, 15]: ≥ 34.2 µM
- TGI A-549 ([2]; SRB assay, 48 hours exposure): 1.90E−05
- GI50 ([3]; Homo sapiens, SK-MEL-28, 48 h, read-out: GI50 MEL-28, SRB assay, 48 hours exposure): 11.6 µM
- CC50 ([3]; Homo sapiens, SK-MEL-28, 48 h): ≥ 34.2 µM
- TGI MEL-28 ([3]; SRB assay, 48 hours exposure): 3.20E−05
- GI50 [4, 16]: 13.2 µM
- CC50 [4, 17]: ≥ 34.2 µM
- TGI HT-29 ([4]; SRB assay, 48 hours exposure): 3.42E−05
- GI50 ([5]; Homo sapiens, LoVo, 48 h, read-out: GI50 LOVO, SRB assay, 48 hours exposure): 9.92 µM
- CC50 ([5]; Homo sapiens, LoVo, 48 h): ≥ 34.2 µM
- TGI LOVO ([5]; SRB assay, 48 hours exposure): 3.42E−05
- GI50 [6]: 3930 nM
- CC50 [6]: 26.4 µM
- TGI LOVO-DOX [6]: 1.02E−05
- GI50 ([7]; Homo sapiens, DU-145, 48 h, read-out: GI50 DU-145, SRB assay, 48 hours exposure): 11.4 µM
- CC50 ([7]; Homo sapiens, DU-145, 48 h): ≥ 34.2 µM
- TGI DU-145 ([7]; SRB assay, 48 hours exposure): 3.38E−05
- GI50 ([8]; Homo sapiens, LNCaP, 48 h, read-out: GI50 LN-caP, SRB assay, 48 hours exposure): 6.84 µM
- CC50 ([8]; Homo sapiens, LNCaP, 48 h, read-out: LC50 LN-caP, SRB assay, 48 hours exposure): ≥ 34.2 µM
- TGI LN-caP ([8]; SRB assay, 48 hours exposure): 1.55E−05
- GI50 ([9]; Homo sapiens, SK-BR-3, 48 h, read-out: GI50 SK-BR-3, SRB assay, 48 hours exposure): 8.82 µM
- CC50 ([9]; Homo sapiens, SK-BR-3, 48 h): ≥ 34.2 µM
- TGI SK-BR-3 ([9]; SRB assay, 48 hours exposure): 2.32E−05
- GI50 ([10]; Homo sapiens, IGROV-1, 48 h, read-out: GI50 IGROV, SRB assay, 48 hours exposure): 7.42 µM
- CC50 ([10]; Homo sapiens, IGROV-1, 48 h, read-out: LC50 IGROV, SRB assay, 48 hours exposure): ≥ 34.2 µM
- TGI IGROV ([10]; SRB assay, 48 hours exposure): 1.53E−05
- GI50 ([11]; Homo sapiens, 48 h, read-out: GI50 IGROV-ET, SRB assay, 48 hours exposure): 8.79 µM
- CC50 ([11]; Homo sapiens, 48 h): ≥ 34.2 µM
- TGI IGROV-ET ([11]; SRB assay, 48 hours exposure): 2.00E−05
- GI50 ([12]; Homo sapiens, SK-OV-3, 48 h, read-out: GI50 SKOV-3, SRB assay, 48 hours exposure): 7.73 µM
- CC50 ([12]; Homo sapiens, SK-OV-3, 48 h): ≥ 34.2 µM
- TGI SKOV-3 ([12]; SRB assay, 48 hours exposure): 2.09E−05
- GI50 ([13]; Homo sapiens, PANC-1, 48 h, read-out: GI50 PANC-1, SRB assay, 48 hours exposure): 8.79 µM
- CC50 ([13]; Homo sapiens, PANC-1, 48 h): ≥ 34.2 µM
- TGI PANC-1 ([13]; SRB assay, 48 hours exposure): 2.91E−05

Structure (SMILES): Nc1nccc2c(-c3ccncn3)c3c(O)ccnc3n12 [Compound 100]
- GI50 [1]: 6.78 µM
- CC50 [1]: ≥ 25.5 µM
- TGI K-562 [1]: 1.49E−05
- CC50 [2, 15]: ≥ 25.5 µM
- TGI A-549 ([2]; SRB assay, 48 hours exposure): 2.63E−06
- GI50 [2, 18]: 0.678 µM
- CC50 ([3]; Homo sapiens, SK-MEL-28, 48 h): ≥ 25.5 µM
- TGI MEL-28 ([3]; SRB assay, 48 hours exposure): 8.08E−06
- GI50 ([3]; read-out: GI50 MEL-28, SRB assay, 48 hours exposure): 1.32 µM
- GI50 [4, 16]: 14.9 µM
- CC50 [4, 17]: ≥ 25.5 µM
- TGI HT-29 ([4]; SRB assay, 48 hours exposure): 2.55E−05
- CC50 ([5]; Homo sapiens, LoVo, 48 h): ≥ 25.5 µM
- TGI LOVO ([5]; SRB assay, 48 hours exposure): 5.12E−06
- GI50 ([5]; read-out: GI50 LOVO, SRB assay, 48 hours exposure): 0.877 µM
- GI50 [6]: 1180 nM
- CC50 [6]: ≥ 25.5 µM
- TGI LOVO-DOX [6]: 1.30E−05
- CC50 ([7]; Homo sapiens, DU-145, 48 h): ≥ 25.5 µM
- TGI DU-145 ([7]; SRB assay, 48 hours exposure): 5.25E−06
- GI50 ([7]; read-out: GI50 DU-145, SRB assay, 48 hours exposure): 0.739 µM
- TGI LN-caP ([8]; SRB assay, 48 hours exposure): 3.29E−06
- GI50 ([8]; read-out: GI50 LN-caP, SRB assay, 48 hours exposure): 1.05 µM
- CC50 ([8]; read-out: LC50 LN-caP, SRB assay, 48 hours exposure): 10.9 µM
- CC50 ([9]; Homo sapiens, SK-BR-3, 48 h): 10.6 µM
- TGI SK-BR-3 ([9]; SRB assay, 48 hours exposure): 1.52E−06
- GI50 ([9]; read-out: GI50 SK-BR-3, SRB assay, 48 hours exposure): 0.464 µM
- TGI IGROV ([10]; SRB assay, 48 hours exposure): 4.69E−06
- GI50 ([10]; read-out: GI50 IGROV, SRB assay, 48 hours exposure): 1.4 µM
- CC50 ([10]; read-out: LC50 IGROV, SRB assay, 48 hours exposure): 13.2 µM
- CC50 ([11]; Homo sapiens, 48 h): 22.9 µM
- TGI IGROV-ET ([11]; SRB assay, 48 hours exposure): 2.33E−06
- GI50 ([11]; read-out: GI50 IGROV-ET, SRB assay, 48 hours exposure): 0.683 µM
- CC50 ([12]; Homo sapiens, SK-OV-3, 48 h): ≥ 25.5 µM
- TGI SKOV-3 ([12]; SRB assay, 48 hours exposure): 9.84E−06
- GI50 ([12]; read-out: GI50 SKOV-3, SRB assay, 48 hours exposure): 1.74 µM
- CC50 ([13]; Homo sapiens, PANC-1, 48 h): ≥ 25.5 µM
- TGI PANC-1 ([13]; SRB assay, 48 hours exposure): 2.55E−05
- GI50 ([13]; read-out: GI50 PANC-1, SRB assay, 48 hours exposure): 4.92 µM

Structure (SMILES): COc1cccc(-c2c3cccnc3n3c(N)nccc23)c1 [Compound 62]
- A-549 TGI ([2]; SRB assay, 48 hours exposure): 3.44E−05
- CC50 ([2]; read-out: A-549 LC50, SRB assay, 48 hours exposure): 34.4 µM
- GI50 [2, 18]: 34.4 µM
- HT-29 TGI ([4]; SRB assay, 48 hours exposure): 3.44E−05
- GI50 ([4]; read-out: HT-29 GI50, SRB assay, 48 hours exposure): 34.4 µM
- CC50 ([4]; read-out: HT-29 LC50, SRB assay, 48 hours exposure): 34.4 µM
- TGI H-MEC-1 ([14]; in M (unit assumed)): 3.44E−05
- GI50 ([14]; read-out: GI50 H-MEC-1): 34.4 µM
- CC50 ([14]; read-out: LC50 H-MEC-1): 34.4 µM
